The assay addresses T1, CFTR (Homo sapiens, UniProt P13569, DEL508-508).
T1 construct: Primary CF airway epithelial cells were obtained from the UNC Cystic Fibrosis Tissue Procurement and Cell Culture Core; host or cells: primary CF airway epithelial cells, differentiated at the air-liquid interface
As to the kind of experiment: Equivalent current assay in primary CF airway epithelial cells (NAUC, combination with 1st site corrector FDL169 or VX-809). It counts as cell-based. Particulars: 37° C., 24 h.

Where [1] appears, read: test compound 3 μM in combination with 1st site corrector VX-809 (3 μM).
[2] abbreviates: test compound 10 μM in combination with 1st site corrector VX-809 (3 μM).
Where [3] appears, read: test compound 1 μM in combination with 1st site corrector FDL169 (3 μM).
[4] abbreviates: test compound 3 μM in combination with 1st site corrector FDL169 (3 μM).
Setting [5] is: test compound 1 μM in combination with 1st site corrector VX-809 (3 μM).
Setting [6] is: test compound 10 μM in combination with 1st site corrector FDL169 (3 μM).

This is an account of results in US20230055237A1, “COMPOUNDS AND METHODS FOR THE TREATMENT OF CYSTIC FIBROSIS” (Flatley Discovery Lab, LLC, priority 2019, published 2023).

SMILES strings stand for the structures.

T1 sequence (P13569 with tags, fused parts or gaps DEL508-508): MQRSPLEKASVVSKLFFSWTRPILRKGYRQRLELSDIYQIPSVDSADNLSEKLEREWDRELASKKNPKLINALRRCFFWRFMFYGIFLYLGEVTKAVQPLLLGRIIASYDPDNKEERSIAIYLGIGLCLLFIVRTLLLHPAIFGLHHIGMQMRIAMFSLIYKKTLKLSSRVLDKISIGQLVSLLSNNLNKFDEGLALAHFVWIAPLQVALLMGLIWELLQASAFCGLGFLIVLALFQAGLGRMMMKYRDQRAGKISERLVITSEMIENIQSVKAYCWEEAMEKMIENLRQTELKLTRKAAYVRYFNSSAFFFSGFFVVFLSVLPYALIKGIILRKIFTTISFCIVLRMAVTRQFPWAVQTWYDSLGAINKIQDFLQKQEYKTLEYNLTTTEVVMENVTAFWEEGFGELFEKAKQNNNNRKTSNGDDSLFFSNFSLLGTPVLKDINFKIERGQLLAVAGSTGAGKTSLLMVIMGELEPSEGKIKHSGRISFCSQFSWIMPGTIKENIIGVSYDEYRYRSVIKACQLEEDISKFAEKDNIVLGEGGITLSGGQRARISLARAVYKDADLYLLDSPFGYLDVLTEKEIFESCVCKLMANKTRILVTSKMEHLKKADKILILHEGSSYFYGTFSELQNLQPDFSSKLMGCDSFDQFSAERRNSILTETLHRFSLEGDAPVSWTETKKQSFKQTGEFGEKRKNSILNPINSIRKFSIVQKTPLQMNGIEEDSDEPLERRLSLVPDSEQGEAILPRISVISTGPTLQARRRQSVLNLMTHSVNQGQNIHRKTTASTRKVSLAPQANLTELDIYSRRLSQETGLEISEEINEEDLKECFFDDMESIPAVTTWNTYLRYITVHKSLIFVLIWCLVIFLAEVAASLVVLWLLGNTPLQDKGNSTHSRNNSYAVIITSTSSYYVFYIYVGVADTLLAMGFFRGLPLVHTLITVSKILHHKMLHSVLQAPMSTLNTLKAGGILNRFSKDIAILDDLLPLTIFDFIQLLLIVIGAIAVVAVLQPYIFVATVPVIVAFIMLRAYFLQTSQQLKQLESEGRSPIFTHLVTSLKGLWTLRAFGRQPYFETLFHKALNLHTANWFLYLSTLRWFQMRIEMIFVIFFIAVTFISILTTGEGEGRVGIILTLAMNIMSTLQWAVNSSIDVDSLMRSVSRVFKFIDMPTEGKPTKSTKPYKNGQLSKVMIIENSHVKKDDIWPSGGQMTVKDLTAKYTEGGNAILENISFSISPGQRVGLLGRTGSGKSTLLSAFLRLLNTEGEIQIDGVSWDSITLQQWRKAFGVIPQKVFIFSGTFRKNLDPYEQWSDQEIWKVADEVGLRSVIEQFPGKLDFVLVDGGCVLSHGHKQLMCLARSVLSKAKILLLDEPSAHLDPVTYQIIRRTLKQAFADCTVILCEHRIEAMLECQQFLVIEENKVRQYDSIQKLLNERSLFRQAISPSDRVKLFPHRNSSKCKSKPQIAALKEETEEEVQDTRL

For `C[C@]1(O)CC2C(C(=O)Nc3cc(C(F)(F)F)cc(C(F)(F)F)n3)C(C(=O)O)C3(C(=O)Nc4c(Cl)cc(Cl)cc43)N2C1` (stereo partly shown) [Example 5], under setting [1], the “Nauc @ 3 μM” value is listed as “+++ (NAUC “+++” refers to an observed NAUC>170% of positive control)”. Also, the “Nauc @ 10 μM” value under setting [2] was “+++ (NAUC “+++” refers to an observed NAUC>170% of positive control)”.
As for `CN(C(=O)C1C2CC(F)(F)CN2C2(C(=O)Nc3c(Cl)cc(Cl)cc32)C1C(=O)O)c1cc(C(F)(F)F)cc(C(F)(F)F)n1` (single isomer, unassigned) [Example 273b, 1′-((4,6-bis(trifluoromethyl)pyridin-2-yl)(methyl)carbamoyl)-5,7-dichloro-6′,6′-difluoro-2-oxo-1′,2′,5′,6′,7′,7a′-hexahydrospiro[indoline-3,3′-pyrrolizine]-2′-carboxylic acid], under setting [3], the “Nauc @ 1 μM” value is “+ (NAUC “+” refers to an observed NAUC <140% of positive control)”. For the same molecule, the “Nauc @ 3 μM” value under setting [4] was “++ (NAUC “++” refers to an observed NAUC 170-140% of positive control)”.
For the molecule `CN(C(=O)[C@H]1[C@@H](C(=O)O)[C@]2(C(=O)Nc3c(Cl)cc(Cl)cc32)N2CC(F)(F)C[C@@H]12)c1cc(Cl)cc(Cl)c1F` (single isomer, unassigned) [Example 265a], the “Nauc @ 1 μM” value under setting [5] is listed as “+ (NAUC “+” refers to an observed NAUC <140% of positive control)”. The “Nauc @ 3 μM” value under setting [1] was “+++ (NAUC “+++” refers to an observed NAUC>170% of positive control)”. Besides, the “Nauc @ 10 μM” value under setting [2] is reported as “+++ (NAUC “+++” refers to an observed NAUC>170% of positive control)”.
Consider `COC(=O)[C@@]1(C)[C@@H](C(=O)N(C)c2cc(Cl)cc(Cl)c2)[C@H]2CC(F)(F)CN2C12C(=O)Nc1c(Cl)cc(Cl)cc12` (stereo partly shown) [Example 282], for which, under setting [3], the “Nauc @ 1 μM” value was “+ (NAUC “+” refers to an observed NAUC <140% of positive control)”. In addition, the “Nauc @ 3 μM” value under setting [4] is reported as “+ (NAUC “+” refers to an observed NAUC <140% of positive control)”.
As for `O=C(Nc1cncc(C(F)(F)F)n1)C1C2CC(F)(F)CN2C2(C(=O)Nc3c(Cl)cc(Cl)cc32)C1C(=O)O` (stereo not shown) [Example 23], the “Nauc @ 3 μM” value under setting [1] is on record as “++ (NAUC “++” refers to an observed NAUC 170-140% of positive control)”. Under setting [2], the “Nauc @ 10 μM” value is on record as “+ (NAUC “+” refers to an observed NAUC <140% of positive control)”.
With `CC(C)(C)CN(C(=O)[C@H]1[C@H]2C[C@](C)(O)CN2[C@]2(C(=O)Nc3c(Cl)cc(Cl)cc32)[C@H]1C(=O)O)c1cc(Cl)cc(Cl)c1` [Example 91, (1′R,2′S,3R,6′S,7a′R)-5,7-dichloro-1′-((3,5-dichlorophenyl)(neopentyl)carbamoyl)-6′-hydroxy-6′-methyl-2-oxo-1′,2′,5′,6′,7′,7a′-hexahydrospiro[indoline-3,3′-pyrrolizine]-2′-carboxylic acid], the “Nauc @ 1 μM” value under setting [3] was “++ (NAUC “++” refers to an observed NAUC 170-140% of positive control)”. For the same molecule, under setting [4], the “Nauc @ 3 μM” value was “++ (NAUC “++” refers to an observed NAUC 170-140% of positive control)”.
With `CN(C(=O)[C@H]1[C@@H](C(F)(F)F)NC2(C(=O)Nc3c(Cl)cc(Cl)cc32)[C@H]1C(=O)O)c1cc(Cl)cc(Cl)c1` (single isomer, unassigned) [Example 269b], the “Nauc @ 1 μM” value by setting is: under setting [3], “++ (NAUC “++” refers to an observed NAUC 170-140% of positive control)”; under setting [5], “+++ (NAUC “+++” refers to an observed NAUC>170% of positive control)”. The “Nauc @ 3 μM” value under setting [4] is “+++ (NAUC “+++” refers to an observed NAUC>170% of positive control)” and the “Nauc @ 3 μM” value under setting [1] is recorded as “+++ (NAUC “+++” refers to an observed NAUC>170% of positive control)”. Further, the “Nauc @ 10 μM” value under setting [6] was “+++ (NAUC “+++” refers to an observed NAUC>170% of positive control)” and the “Nauc @ 10 μM” value under setting [2] is given as “+++ (NAUC “+++” refers to an observed NAUC>170% of positive control)”.
On to `O=C(Nc1cc(Cl)cc(Cl)c1)C1C2CCCN2C2(C(=O)Nc3c(Cl)cc(Cl)cc32)C1C(=O)NO` (single isomer, unassigned) [Example 234a, 5,7-dichloro-N1′-(3,5-dichlorophenyl)-N2′-hydroxy-2-oxo-1′,2′,5′,6′,7′,7a′-hexahydrospiro[indoline-3,3′-pyrrolizine]-1,2′-dicarboxamide], for which the “Nauc @ 1 μM” value under setting [5] is listed as “++ (NAUC “++” refers to an observed NAUC 170-140% of positive control)”. Further, under setting [1], the “Nauc @ 3 μM” value is “++ (NAUC “++” refers to an observed NAUC 170-140% of positive control)”. In addition, the “Nauc @ 10 μM” value under setting [2] is reported as “++ (NAUC “++” refers to an observed NAUC 170-140% of positive control)”.
Regarding `CC(C)(C)CN(C(=O)[C@H]1[C@H]2CC(C)(C)CN2C2(C(=O)Nc3c(Cl)cc(Cl)cc32)[C@H]1C(=O)O)c1cc(Cl)cc(Cl)c1` (single isomer, unassigned) [Example 274.6a, (1′R,2′S,7a′R)-5,7-dichloro-1-((3,5-dichlorophenyl)(neopentyl)carbamoyl)-6′,6′-dimethyl-2-oxo1′,2′,5′,6′,7′,7a′-hexahydrospiro[indoline-3,3′-pyrrolizine]-2′-carboxylic acid], the “Nauc @ 1 μM” value under setting [3] is given as “++ (NAUC “++” refers to an observed NAUC 170-140% of positive control)”. Also, the “Nauc @ 3 μM” value under setting [4] is given as “+ (NAUC “+” refers to an observed NAUC <140% of positive control)”. Further, under setting [6], the “Nauc @ 10 μM” value was “+ (NAUC “+” refers to an observed NAUC <140% of positive control)”.
Take `O=C(Nc1cc(Cl)cc(Cl)c1)C1C2CC(F)(F)CN2C2(C(=O)Nc3c(Cl)cc(Cl)cc32)C1C(=O)NO` (single isomer, unassigned) [Example 226a, 5,7-dichloro-N1′-(3,5-dichlorophenyl)-6′,6′-difluoro-N2′-hydroxy-2-oxo-1′,2′,5′,6′,7′,7a′-hexahydrospiro[indoline-3,3′-pyrrolizine]-1′,2′-dicarboxamide]: under setting [5], the “Nauc @ 1 μM” value is reported as “++ (NAUC “++” refers to an observed NAUC 170-140% of positive control)”. In addition, under setting [1], the “Nauc @ 3 μM” value is “++ (NAUC “++” refers to an observed NAUC 170-140% of positive control)”. Also, the “Nauc @ 10 μM” value under setting [2] is on record as “+++ (NAUC “+++” refers to an observed NAUC>170% of positive control)”.
`CC(C)CN(C(=O)[C@H]1[C@H]2CC(F)(F)CN2[C@]2(C(=O)Nc3c(Cl)cc(Cl)cc32)[C@H]1C(=O)O)c1cc(Cl)cc(Cl)c1` [Example 151]: the “Nauc @ 1 μM” value under setting [3] is reported as “+++ (NAUC “+++” refers to an observed NAUC>170% of positive control)”. Further, the “Nauc @ 3 μM” value under setting [4] is given as “+++ (NAUC “+++” refers to an observed NAUC>170% of positive control)”. Further, the “Nauc @ 10 μM” value under setting [6] is on record as “++ (NAUC “++” refers to an observed NAUC 170-140% of positive control)”.
Regarding `CN(C(=O)[C@H]1[C@H]2CC(F)(F)CN2[C@]2(C(=O)Nc3c(Cl)cc(Cl)cc32)[C@H]1C(=O)O)c1ccccc1-c1ccccc1` [Example 162], the “Nauc @ 1 μM” value under setting [3] is on record as “+++ (NAUC “+++” refers to an observed NAUC>170% of positive control)”. In addition, under setting [4], the “Nauc @ 3 μM” value was “+++ (NAUC “+++” refers to an observed NAUC>170% of positive control)”. Moreover, under setting [6], the “Nauc @ 10 μM” value is “+++ (NAUC “+++” refers to an observed NAUC>170% of positive control)”.
On to `CC(C)(C)CN(C(=O)[C@H]1[C@@H](C(=O)O)C2(C(=O)Nc3c(Cl)cc(Cl)cc32)N2CCC[C@@H]12)c1cc(Cl)cc(Cl)c1` (single isomer, unassigned) [Example 82.6a, (1′R,2′S,7a′R)-5,7-dichloro-1-((3,5-dichlorophenyl)(neopentyl)carbamoyl)-2-oxo-1′,2′,5′,6′,7′,7a′-hexahydrospiro[indoline-3,3′-pyrrolizine]-2′-carboxylic acid], for which, under setting [3], the “Nauc @ 1 μM” value was “+++ (NAUC “+++” refers to an observed NAUC>170% of positive control)”. Also, the “Nauc @ 3 μM” value under setting [4] was “++ (NAUC “++” refers to an observed NAUC 170-140% of positive control)”.
`O=C(Nc1ccc2ccccc2n1)[C@H]1[C@H]2CC(F)(F)CN2[C@]2(C(=O)Nc3c(Cl)cc(Cl)cc32)[C@H]1C(=O)O` [Example 113]: the “Nauc @ 1 μM” value under setting [5] is listed as “+ (NAUC “+” refers to an observed NAUC <140% of positive control)”. Moreover, the “Nauc @ 3 μM” value under setting [1] was “+ (NAUC “+” refers to an observed NAUC <140% of positive control)”. In addition, the “Nauc @ 10 μM” value under setting [2] was “+ (NAUC “+” refers to an observed NAUC <140% of positive control)”.
As for `O=C(Nc1cc(Cl)cc(Cl)c1)C1C(C(=O)O)C(c2cc(Cl)cc(Cl)c2)N2CCCC12` (stereo not shown) [Example 27], the “Nauc @ 3 μM” value under setting [1] is on record as “++ (NAUC “++” refers to an observed NAUC 170-140% of positive control)”. For the same molecule, under setting [2], the “Nauc @ 10 μM” value is given as “++ (NAUC “++” refers to an observed NAUC 170-140% of positive control)”.
As to `O=C(O)[C@H]1[C@@H](C(=O)N(CC2CCCC2)c2cc(Cl)cc(Cl)c2)[C@H]2CCCN2C12C(=O)Nc1c(Cl)cc(Cl)cc12` (single isomer, unassigned) [Example 84b], the “Nauc @ 1 μM” value under setting [3] is “+++ (NAUC “+++” refers to an observed NAUC>170% of positive control)”. Further, under setting [4], the “Nauc @ 3 μM” value is reported as “+ (NAUC “+” refers to an observed NAUC <140% of positive control)”.
In the case of `O=C(Nc1cc(Cl)cc(Cl)c1)C1C(C(F)(F)c2cccc(C(F)(F)F)c2)NC2(C(=O)Nc3c(Cl)cc(Cl)cc32)C1C(=O)O` (stereo not shown) [Example 70.a], under setting [2], the “Nauc @ 10 μM” value is reported as “+ (NAUC “+” refers to an observed NAUC <140% of positive control)”.
Consider `COc1c(Cl)cc(NC(=O)C2C3CC(C)(C)CN3C3(C(=O)Nc4c(Cl)cc(Cl)cc43)C2C(=O)O)cc1Cl` (stereo not shown) [Example 14], for which the “Nauc @ 3 μM” value under setting [1] is reported as “+++ (NAUC “+++” refers to an observed NAUC>170% of positive control)”. The “Nauc @ 10 μM” value under setting [2] is given as “+++ (NAUC “+++” refers to an observed NAUC>170% of positive control)”.
For `C[C@]1(OCc2ccccc2)C[C@@H]2[C@H](C(=O)N(CC3CC3)c3cc(Cl)cc(Cl)c3)[C@H](C(=O)O)[C@@]3(C(=O)Nc4c(Cl)cc(Cl)cc43)N2C1` [Example 93], under setting [3], the “Nauc @ 1 μM” value is listed as “+++ (NAUC “+++” refers to an observed NAUC>170% of positive control)”. In addition, the “Nauc @ 3 μM” value under setting [4] is listed as “+++ (NAUC “+++” refers to an observed NAUC>170% of positive control)”. Also, under setting [6], the “Nauc @ 10 μM” value is given as “++ (NAUC “++” refers to an observed NAUC 170-140% of positive control)”.
